The results in this text go back to patent US4731363A, “Thromboxane synthase inhibitors as insulin lowering agents and antiobesity agents” (priority 1986, dated 1988).

The subject of assay [1] is obese Zucker rats. Description: Antiobesity activity in vivo in obese Zucker rats. The following applies: 16 to 18 days; for Body Weight Gain: treated minus control. On the set-up: species or system rat. How it is done:
Determination of Antiobesity Activity
Thromboxane synthase inhibitors were evaluated for antiobesity activity in vivo. Body weight, food intake and circulating insulin levels were monitored during periods of drug treatment. Analysis of carcass composition was performed at study termination.
Animals, Diets and Drug Administration
Lean and obese male and female Zucker rats bred at Hoffmann-La Roche Inc. (Nutley, NJ) were kept in wire-bottomed individual cages in light (12 hr dark and light cycles beginning at 6 p.m. and 6 a.m., respectively) and temperature-controlled (22°) rooms. All rats were fed chow diet (Ralston Purina Co., St. Louis, MO) ad libitum until one to three weeks before the start of drug treatment, at which time they were trained to consume a high glucose low fat (1% corn oil) diet which is herein referred to as G-70:1% CO. Following the one to three-week training period on G-70:1% CO, the average daily food intake was calculated, and the rats were weighed and divided into groups of four to seven rats each.
The control animals continued to eat the G-70:1% CO diet ad libitum, and the experimental groups were given G-70:1% CO diet containing drug (also fed ad libitum). The amount of drug added to the diet of each experimental group was based on calculations of food consumed per kg body weight using data collected at the end of the training period. […] The period of drug treatment ranged from 16 to 18 days as noted in the legends to the tables and graph. Food intake and body weight were recorded either daily or twice a week throughout the duration of the study. The amount of drug administered was calculated from the food intake per kg body weight for each experimental group. Body weight data are reported as the difference between the body weight gains of control and drug-treated animals. Food intake and insulin data are reported as percent of control.
^a Average duration of treatment was 16 to 18 days.
^b Body weight gain was computed by taking the difference between the
weight gain of treated and control rats.

The target of assay [2] is T1, thromboxane synthase (Human Platelet Microsomes) (Homo sapiens, UniProt P24557).
T1 construct: Platelets were obtained from 320 ml of whole blood and resuspended in 5.0 ml of Krebs-Hensleit buffer; from tissue; host or cells: human platelets (microsomes, 110,000 g pellet)
T1 sequence (P24557 1-533): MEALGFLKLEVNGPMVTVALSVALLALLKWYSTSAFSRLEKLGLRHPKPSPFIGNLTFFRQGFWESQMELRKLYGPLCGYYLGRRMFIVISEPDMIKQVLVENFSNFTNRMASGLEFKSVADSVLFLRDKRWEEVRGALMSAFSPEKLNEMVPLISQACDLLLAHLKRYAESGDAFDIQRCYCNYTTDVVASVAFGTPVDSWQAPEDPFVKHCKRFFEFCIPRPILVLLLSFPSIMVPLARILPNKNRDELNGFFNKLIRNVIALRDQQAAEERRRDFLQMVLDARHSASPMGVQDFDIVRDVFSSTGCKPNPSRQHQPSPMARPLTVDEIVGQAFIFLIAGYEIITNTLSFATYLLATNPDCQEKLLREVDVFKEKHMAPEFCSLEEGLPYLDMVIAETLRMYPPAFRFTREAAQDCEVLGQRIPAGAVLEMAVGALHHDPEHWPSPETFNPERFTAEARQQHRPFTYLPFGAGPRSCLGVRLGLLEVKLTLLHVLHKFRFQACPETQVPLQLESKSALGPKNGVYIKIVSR
Description: Thromboxane synthase inhibition, human platelet microsomes. Type of assay: biochemical. The following applies: enzyme source H = Human Platelet Microsomes; read-out: IC50. The method, then: In said assay procedure, microsomes from guinea pig lung or human platelets are added to an endoperoxide intermediate in prostaglandin biosynthesis and the inhibitor in phosphate buffer solution followed by incubation, extraction and determination of the extent of thromboxane synthase inhibition by TLC with radiochromatographic profile analysis.
Determination of Inhibition of Thromboxane Synthase Activity Isolation of Human Platelet Microsomes
Platelets were obtained from 320 ml of whole blood and resuspended in 5.0 ml of Krebs-Hensleit buffer (CA^+2 free). After three consecutive freeze-thawing cycles, homogenization and centrifugation at 12,000 g for 45 min., the 12,000 supernatant was recentrifuged at 110,000 g for 60 min. The resultant pellet was resuspended in phosphate buffer (0.5 ml, 0.1M, pH 7.5) and stored at -70° until use.
Low specific activity PGH2 (3.3 μCi/μmole) was obtained from Dr. W. E. M. Lands of the University of Michigan. PGH2 of higher specific activity (16.0 μCi/μmole) was purchased from Ran Biochemicals, Tel-Aviv, Israel.
The inhibitors tested were prepared as solutions (1-10 mg/ml) in 95% ethanol.
Assay for Thromboxane Synthase
To a 12×75 mm tube containing [1-^14 C] PGH2 (2 μg, 0.01 μCi or 0.05 μCi) and inhibitor (1 mM final assay concentration, in 10 μl of ethanol) in 225 μl of phosphate buffer (0.1M, pH 7.5), was added to an aliquot of guinea pig lung microsomes (25 μl, containing 400 μg protein) or an aliquot of human platelet microsomes (25 μl, containing .congruent.[…] protein). The solution was incubated in a 22° water bath for 2 min.; ether (1 ml) and citric acid (25 μMoles) were added, and the tube plunged into an acetone-dry ice bath. The ether extract was transferred to a 1.0 ml Reacti-vial, and the volume reduced under nitrogen to .congruent.50 μl.
The extract was applied to an I.T.L.C., type SG, glass fiber sheet (Gelman Instrument Co., Ann Arbor, Mich.) and developed in isooctane; methyl ethyl ketone: acetic acid (100:19:1 or 100:9:1) (19). The sheets were air dried and scanned using a Berthold LB 2760 Radiochromatographic Scanner. In certain cases, based on the radiochromatographic profile obtained, the sheets were cut, the appropriate regions placed in scintillation vials, 10 ml of LSC cocktail (Yorktown Research, S. Hackensack, NJ) added, and the relative cpm determined.

Structures are written as SMILES.

In the case of `CC(=O)c1ccc(-n2ccnc2)cc1` [1-[4-(1H--imidazol-1-yl)phenyl]ethanone, 1-[4-(1H-imidazol-1-yl)phenyl]ethanone], the “Food Consumption” value is on record as 82 ± 3 % of control in assay [1] (60 mg/kg in diet, P ≤ 0.05); 84 ± 1 % of control in assay [1] (87 mg/kg in diet, P ≤ 0.05); 74 ± 1 % of control in assay [1] (113 mg/kg in diet, P ≤ 0.05). Further, the Insulin in assay [1] (60 mg/kg in diet, not marked significant) was 66 ± 16 % of control; in assay [1] (87 mg/kg in diet, P ≤ 0.05), 32 ± 5 % of control; in assay [1] (113 mg/kg in diet, P ≤ 0.05), 24 ± 1 % of control. The “Body Weight Gain” value in assay [1] (60 mg/kg in diet, P ≤ 0.05) is given as -25 g; in assay [1] (87 mg/kg in diet, P ≤ 0.05), -32 g; in assay [1] (113 mg/kg in diet, P ≤ 0.05), -74 g. The IC50 – broadly, the midpoint of a concentration-inhibition curve – in assay [2] fell in the range of 1 to 10 µM.
